One assay concerns the target T1, EP1 (Homo sapiens, UniProt P34995).
T1 construct: expressed in transfected cells; host or cells: CHO (EP1-CHO)
T1 sequence (P34995 1-402): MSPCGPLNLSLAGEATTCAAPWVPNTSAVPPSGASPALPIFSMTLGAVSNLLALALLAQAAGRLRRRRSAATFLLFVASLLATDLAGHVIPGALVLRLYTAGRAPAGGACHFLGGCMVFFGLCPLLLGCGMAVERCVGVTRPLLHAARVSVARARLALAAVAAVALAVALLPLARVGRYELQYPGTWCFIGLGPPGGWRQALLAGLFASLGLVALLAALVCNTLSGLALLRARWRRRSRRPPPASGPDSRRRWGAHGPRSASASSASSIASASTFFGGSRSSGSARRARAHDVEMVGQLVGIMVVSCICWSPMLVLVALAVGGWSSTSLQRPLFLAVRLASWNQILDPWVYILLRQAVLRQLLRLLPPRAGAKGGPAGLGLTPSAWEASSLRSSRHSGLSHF
Nature of the assay: agonist activity on human EP1 receptor (intracellular calcium concentration, EP1-CHO cells). The assay is classed as cell-based. The method, then: (§1) Using CHO cells (EP1-CHO, EP2-CHO, EP3-Chem1, EP4-CHO and IP-CHO) on which various human prostanoid receptors were forcibly expressed, the agonist activity of the test compound on the various prostanoid receptors was examined using the intracellular calcium concentration for EP1 and EP3, and the intracellular cyclic AMP (hereinafter, abbreviated as cAMP) production amount for EP2, EP4 and IP as indices.
(§2) The test compound and control substances (PGE2 and iloprost) were dissolved in dimethyl sulfoxide (DMSO) to prepare a 10 mmol/L solution. The prepared 10 mmol/L solution was thawed at the time of use, serially diluted using DMSO, and diluted with a buffer solution 1 for measurement (Hank's balanced salt solution (Thermofischer scientific) containing 1 w/v% human serum albumin (Sigma), 2 µmol/L indomethacin (Sigma), 2.5 mmol/L probenecid, and 10 mmol/L HEPES-NaOH (pH7.4)) or a buffer solution 2 for measurement (D-PBS (Nacalai Tesque) containing 0.1 w/v% human serum albumin, 2 µmol/L diclofenac (Sigma), and 1 mmol/L 3-isobutyl-1-methylxanthine (Sigma)) to perform experiments.
The intracellular calcium concentration was measured using Calcium 6 Assay Kit (Molecular Devices). On the day before the measurement, EP1-CHO and EP3-Chem 1 were obtained by thawing the frozen cells, suspended using Ham's F-12 medium (Thermofischer scientific) containing inactivated (56°C, 30 min) 9.8 vol% FBS (Thermofischer scientific) and penicillin-streptomycin (Nacalai Tesque), seeded into a 96 well UV plate to 1.0×10^5 cells per well, and static cultured at 37°C in the presence of 5%CO2. On the day of the measurement, the medium was removed, followed by addition of 120 µL of the Calcium indication solution dissolved in the buffer solution 1 for measurement and incubation at room temperature under light-shielding for about 1 hour. After 1 hour incubation, the 96 well UV plates were set in a fluorescence spectrophotometer (FDSS-7000, Hamamatsu Photonics) to measure the intracellular calcium concentration. Thirty microliters of the buffer solution 1 for measurement containing various concentrations of agonists were added, and the mixture was reacted. The intracellular calcium concentration was measured by irradiating the cells with 480 nm excitation light and measuring the fluorescence intensity at 540 nm.
In general terms: Calcium flux is commonly read through the fluorescence of an indicator in the cells.

The subject of the next assay is diabetes model rat. Put plainly: inhibitory effect on the amount of albumin excreted in urine in diabetes model rat. Particulars: urine collected for 24 hours, urine albumin/urine creatinine ratio. It is filed as in vivo, SDT Fatty rats. The method, then: Male SDT Fatty rats aged 6 weeks (CLEA Japan) were purchased and preliminarily bred for 1 week or more. Experiments were performed at 8 to 16 weeks of age. The animals were fed ad libitum with solid feed CRF-1 (Oriental Yeast) and watered ad libitum.
Animals were housed in metabolic cages 2 days before test substance administration, and urine was collected for 24 hours. On the day before administration of the test substance, urine albumin and urine creatinine were measured, and grouping was performed by a stratification randomization method based on the urine albumin/urine creatinine ratio (ACR) and the average value of body weights for each group.
The compounds (test substances) of Examples 9-5, 10, 11, 12, 25-7 and 32, and water for injection (Otsuka Pharmaceutical) as a vehicle were orally administered once at 5 mL/kg. The administration dose is described in Table 3.
For evaluation of the amount of albumin excreted in urine of each animal, a urine albumin/urine creatinine ratio (ACR) was measured. After administration of the test substance, the animals were housed in metabolic cages, and urine was collected for 24 hours. Each concentration of urine albumin and urine creatinine was measured using an automatic analyzer 7180 (Hitachi High-Tech), and ACR was calculated by dividing the urine albumin concentration by the urine creatinine concentration.

Assay [1] relates to rat 5/6 kidney-removed model. Nature of the assay: in vivo drug efficacy on renal damage in rat 5/6 kidney-removed model. On the set-up: species or system Jcl: Wistar (Wistar) rats. The note with it: after 8 weeks from the start of administration. The text has this:
The obtained urine sample was centrifuged, and the supernatant was subjected to measurement.

Assay [2] relates to diabetic renal disease model rat. Put plainly: in vivo drug efficacy in diabetic renal disease model rat (single kidney removal, saline). Details: species or system SDT.Cg-Leprfa/JttJcl (SDT-fatty rat). Particulars: 8 weeks after the start of administration. The method, then: A diabetic renal disease model was created by extracting the unilateral kidneys of male SDT.Cg-Leprfa/JttJcl (SDT-fatty/Jcl, CLEA Japan) rats, a type 2 diabetes model, and then giving saline. The in vivo drug efficacy of the present compound on diabetic renal disease was evaluated in this model.
Male SDT.Cg-Leprfa/JttJcl (SDT-fatty rat) aged 4 weeks was purchased from CLEA Japan, and subjected to experiments. The animals were fed ad libitum with Purina5008 (Japan SLC) from the time of arrival, and watered ad libitum. Water was given from the arrival and until 1 week from single kidney removal, and a 0.2 w/v% NaCl solution was given 1 week after single kidney removal.
After acclimation breeding, the body weight was measured, and buprenorphine was subcutaneously administered at a dose of 0.01 mg/kg under inhalation anesthesia with isoflurane (Mayran). After removing hair from the right abdomen of the rat, the right abdomen was disinfected with ethanol and isodine for disinfection and incised to expose the right kidney. The renal artery and vein was ligated with a suture to stop the blood flow, the right kidney was totally removed, and the incision was sutured. The following day, analgesic buprenorphine was administered subcutaneously at a dose of 0.01 mg/kg.
Grouping was performed 3 weeks after single kidney removal. The mice were divided into groups so that the average of the above parameters was almost equal between the groups on the basis of body weight, serum urea nitrogen (BUN), serum creatinine (S-CRE), serum total cholesterol (T-CHO), blood glucose level (GLU), neutral fat (TG), urinary protein (U-TP), urinary albumin (U-ALB), and creatinine clearance (CCr).
All of the compounds of Examples 25-7, 10, 11 and 12 were orally administered once a day for 8 weeks in combination with losartan (30 mg/kg), a renin angiotensin system inhibitor, and canagliflozin (10 mg/kg), a glucose co-transporter inhibitor. The compounds of Examples 25-7, 10, 11 and 12, and losartan were each dissolved in water for injection (Otsuka Pharmaceutical), and canagliflozin was suspended in a 0.5% methyl cellulose solution (Fujifilm Wako Pure Chemical Corporation) to prepare an administration solution. In the Control-1 group, water for injection which is a vehicle of losartan or the compound of Examples 25-7, 10, 11 or 12 was orally administered at 5 mL/kg, and a 0.5% methylcellulose solution which is a vehicle of canagliflozin was orally administered at 2.5 mL/kg once a day for 8 weeks. In the Control-2 group, losartan (30 mg/kg) dissolved in water for injection was orally administered at an administration volume of 2.5 mL/kg, canagliflozin (10 mg/kg) suspended in a 0.5% methyl cellulose solution was orally administered at an administration volume of 2.5 mL/kg, and water for injection which is a vehicle of the compounds of Examples 25-7, 10, 11 and 12 was orally administered at an administration volume of 2.5 mL/kg once a day for 8 weeks. The administration dose is described in Table 8.
Blood was collected by puncturing the tail vein of the rat with an injection needle. Blood was collected in a tube for serum separation (BD Microtainer) and centrifuged to obtain serum. Urine was collected for 24 hours in a metabolic cage for rat under conditions in which a solid feed and water can be freely taken. The obtained urine sample was centrifuged, and the supernatant was subjected to measurement. The concentrations of BUN, S-CRE, T-CHO, TG, U-ALB, U-TP, GLU and U-CRE were measured by an automatic analyzer Hitachi 7180 (Hitachi High-Tech).

Another assay addresses T2, EP3 receptor (Homo sapiens, UniProt P43115).
T2 construct: expressed in transfected cells; host or cells: EP3-Chem1
T2 sequence (P43115 1-390): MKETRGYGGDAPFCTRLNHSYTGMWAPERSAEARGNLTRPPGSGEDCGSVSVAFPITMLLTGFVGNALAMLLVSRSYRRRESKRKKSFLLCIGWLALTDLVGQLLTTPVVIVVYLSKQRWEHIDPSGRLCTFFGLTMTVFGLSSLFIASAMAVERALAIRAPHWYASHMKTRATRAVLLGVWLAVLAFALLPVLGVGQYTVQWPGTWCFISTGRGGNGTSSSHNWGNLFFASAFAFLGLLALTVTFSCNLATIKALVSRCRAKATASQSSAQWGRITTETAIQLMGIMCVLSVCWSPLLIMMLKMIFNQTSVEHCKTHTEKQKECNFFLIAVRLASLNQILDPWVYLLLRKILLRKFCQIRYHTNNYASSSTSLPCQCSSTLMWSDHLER
Put plainly: agonist activity on human EP3 receptor (intracellular calcium concentration, EP3-Chem1 cells). It is filed as cell-based. The note with it: agonist activity on the EP3 receptor. The method, then:
as §1, §2

For another assay, the target named is T3, EP2 (Homo sapiens, UniProt P43116).
T3 construct: expressed in transfected cells; host or cells: CHO (EP2-CHO)
Nature of the assay: agonist activity on human EP2 receptor (cAMP production, EP2-CHO cells). It is filed as cell-based. The method, then: as §1
(§3) The test compound and control substances (PGE2 and iloprost) were dissolved in dimethyl sulfoxide (DMSO) to prepare a 10 mmol/L solution. […]
(§4) On the day of the measurement, EP2-CHO, EP4-CHO, and IP-CHO were obtained by thawing frozen cells. […] The cAMP concentration was measured using a cAMP HTRF HiRange kit (CIS bio International). […] After incubation for 1 hour, time-resolved fluorescence at 620 nm and 660 nm when excited at 340 nm was measured using Synergy Neo (Bioteck), and the ratio (TRF ratio) was determined to calculate the cAMP concentration from the calibration curve.

The next assay concerns the target T4, EP4 (Homo sapiens, UniProt P35408).
T4 construct: expressed in transfected cells; host or cells: CHO (EP4-CHO)
Put plainly: agonist activity on human EP4 receptor (cAMP production, EP4-CHO cells). The assay is classed as cell-based. The method, then:
as §1, §3, §4
(In general: cAMP levels reflect the balance of adenylyl cyclase and phosphodiesterase activity.)

The next assay addresses T5, IP (Homo sapiens, UniProt P43119).
T5 construct: expressed in transfected cells; host or cells: CHO (IP-CHO)
Put plainly: agonist activity on human IP receptor (cAMP production, IP-CHO cells). The assay is classed as cell-based. The method, then:
as §1, §3, §4

T3 sequence (P43116 whole entry): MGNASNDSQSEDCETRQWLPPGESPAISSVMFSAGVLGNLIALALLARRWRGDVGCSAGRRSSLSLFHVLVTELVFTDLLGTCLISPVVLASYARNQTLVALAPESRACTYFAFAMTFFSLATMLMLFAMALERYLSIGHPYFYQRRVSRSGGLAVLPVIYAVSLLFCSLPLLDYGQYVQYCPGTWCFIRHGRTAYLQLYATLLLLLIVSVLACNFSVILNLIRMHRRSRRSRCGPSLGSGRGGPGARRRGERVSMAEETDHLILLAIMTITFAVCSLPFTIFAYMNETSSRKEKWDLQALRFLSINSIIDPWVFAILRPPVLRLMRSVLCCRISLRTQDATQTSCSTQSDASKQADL
T5 sequence (P43119 whole entry): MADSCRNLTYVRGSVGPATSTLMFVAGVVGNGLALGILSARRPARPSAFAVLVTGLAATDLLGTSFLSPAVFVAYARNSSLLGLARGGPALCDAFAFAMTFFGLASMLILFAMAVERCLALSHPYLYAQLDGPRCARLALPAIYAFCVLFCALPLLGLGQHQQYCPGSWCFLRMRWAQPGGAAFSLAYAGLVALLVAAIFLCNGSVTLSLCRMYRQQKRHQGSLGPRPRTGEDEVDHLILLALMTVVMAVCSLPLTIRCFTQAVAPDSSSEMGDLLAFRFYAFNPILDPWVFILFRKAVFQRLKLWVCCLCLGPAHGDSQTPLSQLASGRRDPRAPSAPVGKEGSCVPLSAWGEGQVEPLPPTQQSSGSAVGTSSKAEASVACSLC
T4 sequence (P35408 whole entry): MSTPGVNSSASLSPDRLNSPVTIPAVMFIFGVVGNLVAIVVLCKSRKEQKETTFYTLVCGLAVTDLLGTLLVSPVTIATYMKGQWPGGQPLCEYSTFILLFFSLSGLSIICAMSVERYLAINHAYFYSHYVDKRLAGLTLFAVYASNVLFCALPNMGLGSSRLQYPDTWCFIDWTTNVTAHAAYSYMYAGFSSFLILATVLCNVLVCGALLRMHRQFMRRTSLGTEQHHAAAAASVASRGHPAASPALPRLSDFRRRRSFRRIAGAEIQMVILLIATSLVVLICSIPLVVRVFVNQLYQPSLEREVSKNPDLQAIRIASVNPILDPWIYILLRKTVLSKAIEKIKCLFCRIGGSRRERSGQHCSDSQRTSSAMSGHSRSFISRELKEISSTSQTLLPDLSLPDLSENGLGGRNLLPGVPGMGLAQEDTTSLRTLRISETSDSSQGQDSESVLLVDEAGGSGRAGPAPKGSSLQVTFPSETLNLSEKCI

In general, EC50 refers to the concentration that produces a half-maximal response. Regarding `CCC(CCC(C)C)C(O)/C=C/[C@@H]1[C@H]2CCc3ccc(C(=O)O)c(C)c3O[C@H]2C[C@H]1O` (stereo partly drawn) [Example 10, (1R,2R,3aS,10aR)-1-[(1E,3ξ,4ξ)-4-ethyl-3-hydroxy-7-methyl-1-octen-1-yl]-2-hydroxy-5-methyl-2,3,3a,9,10,10a-hexahydro-1H-benzo[b]cyclopenta[f]oxepine-6-carboxylic acid], on EP1, the EC50 was above 10 µM. Further, the ACR mean with diabetes model rat (0.01 mg/kg orally once) turned out to be 909.3 µg/mg; with diabetes model rat (0.1 mg/kg orally once), 751.6 µg/mg. Moreover, in assay [1] (0.1 mg/kg orally once a day for 8 weeks), the “Amount of albumin excreted in urine mean” value is given as 35.47 mg/24 h. Moreover, in assay [2] (0.1 mg/kg orally once a day for 8 weeks in combination with losartan (30 mg/kg) and canagliflozin (10 mg/kg)), the Serum creatinine mean amounted to 0.50 mg/dL.
On to `Cc1c(C(=O)O)ccc2c1O[C@H]1C[C@@H](O)[C@H](/C=C/C[C@@](C)(O)CCC(F)=C(F)F)[C@H]1CC2` [Example 11, (1R,2R,3aS,10aR)-2-hydroxy-5-methyl-1-[(1E,45)-7,8,8-trifluoro-4-hydroxy-4-methyl-1,7-octadien-1-yl]-2,3,3a,9,10,10a-hexahydro-1H-benzo[b]cyclopenta[f]oxepine-6-carboxylic acid], for which the EC50 at EP1 was above 10 µM. Also, the ACR mean with diabetes model rat (0.01 mg/kg orally once) is on record as 1010.5 µg/mg; with diabetes model rat (0.03 mg/kg orally once), 575.3 µg/mg. The “Amount of albumin excreted in urine mean” value in assay [1] (0.01 mg/kg orally once a day for 8 weeks) is given as 46.01 mg/24 h; in assay [1] (0.03 mg/kg orally once a day for 8 weeks), 37.94 mg/24 h. Also, the Serum creatinine mean in assay [2] (0.01 mg/kg orally once a day for 8 weeks in combination with losartan (30 mg/kg) and canagliflozin (10 mg/kg)) is 0.46 mg/dL; in assay [2] (0.03 mg/kg orally once a day for 8 weeks in combination with losartan (30 mg/kg) and canagliflozin (10 mg/kg)) it was 0.47 mg/dL.
“(1R,2R,3aS,10aR)-2,5-difluoro-1-[(1E,3ξ)-3-hydroxy-4-methyl-4-phenyl-1-penten-yl]-2,3,3a,9,10,10a-hexahydro-1H-benzo[b]cyclopenta[f]oxepine-6-carboxylic acid [Example 28]”: the EC50 is 0.03 µM on EP3 receptor; above 10 µM on EP1; above 10 µM on EP2; 1.1 µM at EP4; above 10 µM at IP.

Values taken from EP4682141A1, “TRICYCLIC COMPOUND” (ONO Pharmaceutical Co., Ltd., priority 2023, dated 2024).
